Reference: PubChem BioAssay (NCI)
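Five compound concentrations were applied to cells in 96-well plates for 48 hours; endpoints were derived by simple linear interpolation of the resulting dose-response curve. GI50 = concentration required for 50% inhibition of growth. TGI marks complete inhibition of growth.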

How the values were obtained:
Assay in all cases: NCI tumour cell line growth inhibition, 48 h
K-562 leukemia = tested on: K-562 leukemia
KM20L2 colon = tested on: KM20L2 colon
DMS 114 small cell lung = tested on: DMS 114 small cell lung
UACC-257 melanoma = tested on: UACC-257 melanoma
COLO 205 colon = tested on: COLO 205 colon
SNB-75 CNS = tested on: SNB-75 CNS
HCC-2998 colon = tested on: HCC-2998 colon
SF-539 CNS = tested on: SF-539 CNS
MDA-MB-435 = tested on: MDA-MB-435
HOP-62 NSCLC = tested on: HOP-62 NSCLC

Row | SMILES | TGI (K-562 leukemia) [µM] | TGI (KM20L2 colon) [µM] | TGI (DMS 114 small cell lung) [µM] | TGI (UACC-257 melanoma) [µM] | TGI (COLO 205 colon) [µM] | TGI (SNB-75 CNS) [µM] | TGI (HCC-2998 colon) [µM] | TGI (SF-539 CNS) [µM] | TGI (MDA-MB-435) [µM] | TGI (HOP-62 NSCLC) [µM] | GI50 (K-562 leukemia) [µM] | GI50 (UACC-257 melanoma) [µM] | GI50 (COLO 205 colon) [µM] | GI50 (SNB-75 CNS) [µM] | GI50 (HCC-2998 colon) [µM] | GI50 (SF-539 CNS) [µM] | GI50 (MDA-MB-435) [µM] | GI50 (HOP-62 NSCLC) [µM]
1 | COc1cc(-c2[nH]ccc2Cl)oc1C1=C2N=C3C=C2C(C(C)C)C1CCCCCCCC3 (centres undefined) | 1.85 | 1.48 | 1.87 | 3.18 | 1.87 | 3.18 | 1.77 | 2.46 | 1.4 | 2.07 |  |  |  |  |  |  |  | 
2 | CC(=O)OC12c3ccccc3C1CCCCCC21OCCCO1 (centres undefined) | > 100 | > 100 | > 100 |  | > 100 | > 100 | > 100 | > 100 |  | > 100 |  |  |  |  |  |  |  | 
3 | Cc1ccc(C)c(NC(=O)c2cc(-c3ccc([N+](=O)[O-])cc3)nc(N)n2)c1 | > 100 | > 100 | > 100 | > 100 | > 100 | > 100 | > 100 | > 100 |  | > 100 |  |  |  |  |  |  |  | 
4 | O=c1/c(=C/c2ccc(Cl)cc2Cl)sc2nc3ccccc3n12 | > 100 | > 100 | > 100 | > 100 | > 100 | > 100 | > 100 | > 100 |  | > 100 |  |  |  |  |  |  |  | 
5 | Cn1c(CCC#N)nc2ccc(Br)cc2c1=O | > 100 | > 100 | > 100 | > 100 | > 100 | > 100 | > 100 | > 100 |  | > 100 |  |  |  |  |  |  |  | 
6 | COc1ccc(C(c2ccc(C(C)C)cc(=O)c2O)c2c(O)cc3oc(-c4ccccc4)cc(=O)c3c2O)cc1 (centres undefined) | 64.3 | > 100 |  | 72.4 | 25.9 | > 100 | 33.6 | 21.5 |  | 9.67 |  |  |  |  |  |  |  | 
7 | CCOC(=O)/N=C(\N)SCc1ccccc1 | > 100 | > 100 | > 100 | > 100 |  | > 100 | > 100 | > 100 |  | > 100 |  |  |  |  |  |  |  | 
8 | COc1cc2c(c(OC)c1OC)-c1[nH]ncc1CC2 | > 100 | > 100 | > 100 | > 100 | > 100 | > 100 | > 100 | > 100 |  | > 100 |  |  |  |  |  |  |  | 
9 | CC1(O)CC2C(CC1SCCO)C2(C)C (centres undefined) | > 100 |  | > 100 | > 100 | > 100 | > 100 | > 100 | > 100 |  |  |  |  |  |  |  |  |  | 
10 | O=c1c2ccc3cccc4c(=O)cc(c5ccccc15)-c2c34 | > 100 | > 100 | > 100 | > 100 | > 100 | > 100 | > 100 |  |  | > 100 |  |  |  |  |  |  |  | 
11 | O=C1CCCC/C1=C/C=C/c1ccccc1 | > 100 | > 100 |  | > 100 | > 100 | > 100 | > 100 | > 100 |  |  |  |  |  |  |  |  |  | 
12 | O=C(Nc1c(-c2nc3ccccc3[nH]2)sc(=S)n1-c1ccccc1)c1ccccc1 | > 100 |  | > 100 | > 100 | > 100 | 58.4 | > 100 | > 100 |  | > 100 |  |  |  |  |  |  |  | 
13 | COC(OC)c1cccc2c1C1(O)CCC3(CC21)OCCCCO3 (centres undefined) | > 100 | > 100 | > 100 | > 100 | > 100 | > 100 | > 100 | > 100 |  | > 100 |  |  |  |  |  |  |  | 
14 | CCCNCc1nc2ccc(Br)cc2c(=O)n1CCC | > 100 | 34.3 | 22.9 | 26 | 27.7 | 31.7 |  | 29.5 |  | 36.9 |  |  |  |  |  |  |  | 
15 | C(=C\c1csnn1)/c1cccnc1 | > 100 | > 100 | > 100 | > 100 | > 100 | > 100 | > 100 | > 100 |  | > 100 |  |  |  |  |  |  |  | 
16 | COc1ccc2c3c1C(=O)CCC3CO2 (centres undefined) | > 100 | > 100 | > 100 | > 100 | > 100 |  | > 100 | > 100 |  | > 100 |  |  |  |  |  |  |  | 
17 | CC(=O)N1CC2Nc3ccccc3C2CC1CO (centres undefined) | > 100 | > 100 | > 100 | > 100 | > 100 | > 100 | > 100 | > 100 |  | > 100 |  |  |  |  |  |  |  | 
18 | CCCCCCCCCCCC(=O)OCC1OC(n2cc(F)c(=O)[nH]c2=O)C(N)C(OC(=O)CCCCCCCCCCC)C1O (centres undefined) | > 100 | > 100 | > 100 | > 100 | > 100 | > 100 | > 100 | > 100 |  | > 100 |  |  |  |  |  |  |  | 
19 | ClCCN(CCCl)c1ccc(-n2cnc3c(Cl)ncnc32)cc1 | 9.92 |  |  | 5.16 | 19.1 | 7.37 | 3.41 | 19 | 4.12 | 20.2 | 3.24 | 2.24 | 5.74 | 2.06 | 1.84 | 5.23 | 2.04 | 6.94
20 | Cn1c(COC(=O)N2CCCCC2)nc2c(N3CCOCC3)nc(-c3ccccc3)nc21 | 6.7 |  |  | 2.67 | 2.63 | 2.18 | 3.04 | 2.61 | 1.86 | 3.21 | 0.364 | 1.22 | 1.03 | 0.817 | 1.58 | 1.33 | 0.58 | 1.42
21 | Cc1ccccc1C(=O)Oc1ccc(Oc2ccccc2)cc1 | > 100 | > 100 | > 100 | > 100 | > 100 | > 100 | > 100 | > 100 |  | > 100 |  |  |  |  |  |  |  | 
22 | O=C1/C(=C/c2ccccc2Cl)N=C(c2ccccc2)N1Cc1ccco1 | > 100 |  |  | 39.8 | > 100 | > 100 | > 100 | > 100 | 49.9 | > 100 | 24.2 | 21.2 | 51.4 | 50.3 | 43.2 | 63.8 | 20.1 | > 100
